Like-named read-outs stand apart in the source and are kept apart here.
How the values were obtained:
[1] = target: SARS-CoV-2 3CL protease (Severe acute respiratory syndrome coronavirus 2, UniProt P0DTD1); assay: biochemical; conditions: 50% SARS-CoV-2 3CL protease inhibitory concentration, read-out: IC50
[2] = test system: SARS-CoV-2; assay: microbe, parasite or virus in culture; type: cell-based; conditions: Severe acute respiratory syndrome coronavirus 2, VeroE6/TMPRSS2, 72 h, 50% SARS-CoV-2 infected cell death inhibitory concentration, VeroE6/TMPRSS2 cells, 3 days culture

Structure (SMILES)	IC50 ([1]; RapidFire MS) [nM]	EC50 ([2]; CellTiter-Glo 2.0) [nM]	IC50 ([1]; given as class symbols) [nM]	EC50 ([2]; class symbols) [nM]
N#Cc1cc(Cn2c(Nc3ccc4c(c3)CCO4)nc(=O)n(-c3cncc4ccccc34)c2=O)ccc1F [Compound I-0351]	4.3	74.7		
N#Cc1cc(Cn2c(Nc3ccc4nn(CC(F)F)cc4c3)nc(=O)n(-c3cncc4ccccc34)c2=O)ccc1F [Compound I-0352]			< 100	< 1000
Cn1cc2cc(Nc3nc(=O)n(-c4cncc5ccccc45)c(=O)n3Cc3ccc(F)c(C#N)c3)ccc2n1 [Compound I-0353]	5.4	306		
Cc1cncc(-n2c(=O)nc(Nc3ccc4c(c3)CCO4)n(Cc3ccc(F)c(C#N)c3)c2=O)c1 [Compound I-0354]	5	107		
Cc1cncc(-n2c(=O)nc(Nc3ccc4nn(CC(F)F)cc4c3)n(Cc3ccc(F)c(C#N)c3)c2=O)c1 [Compound I-0355]	8.7	339	< 100	< 1000
O=c1[nH]cccc1Cn1c(=O)nc(Nc2cc3cn(C(F)F)nc3cc2Cl)n(Cc2cc(F)c(F)c(F)c2)c1=O [Compound I-0357]			< 100	1000 to 10000
COc1ccc(Nc2nc(=O)n(Cc3ccc(C)[nH]c3=O)c(=O)n2Cc2cc(F)c(F)c(F)c2)cc1 [Compound I-0358]	120	7450	100 to 1000	
Cn1cc2cc(Nc3nc(=O)n(Cc4cc(Cl)c[nH]c4=O)c(=O)n3Cc3ccc(F)c(C#N)c3)c(Cl)cc2n1 [Compound I-0359]			< 100	1000 to 10000
Cn1nc2cc(Cl)c(Nc3nc(=O)n(Cc4cccnc4O)c(=O)n3Cc3cc(F)c(F)c(F)c3)cc2c1CCCO [Compound I-0364]			< 100	1000 to 10000
COCCCc1c2cc(Nc3nc(=O)n(Cc4ccc[nH]c4=O)c(=O)n3Cc3cc(F)c(F)c(F)c3)c(Cl)cc2nn1C [Compound I-0365]			< 100	1000 to 10000
CC(C)n1cc2cc(Nc3nc(=O)n(Cc4cccnc4O)c(=O)n3Cc3cc(F)c(F)c(F)c3)c(Cl)cc2n1 [Compound I-0366]			< 100	1000 to 10000
CNC(=O)Cn1cc2cc(Nc3nc(=O)n(Cc4ccc[nH]c4=O)c(=O)n3Cc3cc(F)c(F)c(F)c3)c(Cl)cc2n1 [Compound I-0368]			< 100	1000 to 10000
Cc1cc2nn(C)cc2cc1Nc1nc(=O)n(-c2cccc3cnccc23)c(=O)n1Cc1cc(F)c(F)c(F)c1 [Compound I-0369]			< 100	1000 to 10000
Cc1nc2cc(Cl)c(Nc3nc(=O)n(Cc4ccc[nH]c4=O)c(=O)n3Cc3cc(F)c(F)c(F)c3)cc2s1 [Compound I-0370]			< 100	1000 to 10000
O=c1[nH]cccc1Cn1c(=O)nc(Nc2cc3c(cc2Cl)OCCC3)n(Cc2cc(F)c(F)c(F)c2)c1=O [Compound I-0372]			< 100	< 1000
COc1ccc(Nc2nc(=O)n(-c3cncc(C)c3)c(=O)n2Cc2cc(F)c(F)c(F)c2)cc1 [Compound I-0374]			< 100	1000 to 10000
COc1ccc(Nc2nc(=O)n(-c3cncc4ccccc34)c(=O)n2Cc2ccc(F)c(C#N)c2)cc1 [Compound I-0377]	8	72.9		
Cn1cc2cc(Nc3nc(=O)n(-c4cncc5ccccc45)c(=O)n3Cc3cc(F)c(F)c(F)c3)c(Cl)cc2n1 [Compound I-0378]			< 100	< 1000
Cn1cc2cc(Nc3nc(=O)n(-c4cncc5ccccc45)c(=O)n3Cc3ccc(F)c(C#N)c3)c(Cl)cc2n1 [Compound I-0379]			< 100	< 1000
Cn1cc2cc(Nc3nc(=O)n(-c4cncc5ccccc45)c(=O)n3Cc3cc(F)c(F)c(F)c3)ccc2n1 [Compound I-0380]			< 100	< 1000
O=c1[nH]cccc1Cn1c(=O)nc(Nc2cc3cn(CCOC(F)(F)F)nc3cc2Cl)n(Cc2cc(F)c(F)c(F)c2)c1=O [Compound I-0381]			< 100	1000 to 10000
O=c1[nH]cccc1Cn1c(=O)nc(Nc2cc3cn(C4COC4)nc3cc2Cl)n(Cc2cc(F)c(F)c(F)c2)c1=O [Compound I-0382]			< 100	1000 to 10000
Cc1cncc(-n2c(=O)nc(Nc3cc4cn(C)nc4cc3Cl)n(Cc3ccc(F)c(C#N)c3)c2=O)c1 [Compound I-0383]	3.4	96		

Structure (SMILES)	IC50 ([1]; RapidFire MS) [nM]	EC50 ([2]; CellTiter-Glo 2.0) [nM]	IC50 ([1]; given as class symbols) [nM]	EC50 ([2]; class symbols) [nM]
Cc1cncc(-n2c(=O)nc(Nc3cc4cn(C)nc4cc3F)n(Cc3ccc(F)c(C#N)c3)c2=O)c1 [Compound I-0384]			< 100	< 1000
Cc1cncc(-n2c(=O)nc(Nc3cc4cn(C)nc4cc3C)n(Cc3ccc(F)c(C#N)c3)c2=O)c1 [Compound I-0385]			< 100	< 1000
Cc1nc2cc(Cl)c(Nc3nc(=O)n(Cc4cc5ccsc5[nH]c4=O)c(=O)n3Cc3cc(F)c(F)c(F)c3)cc2n1C [Compound I-0390]	4	3160	< 100	1000 to 10000
O=c1[nH]cc(Cl)cc1Cn1c(=O)nc(Nc2cc3c(cc2Cl)OCC3)n(Cc2cc(F)c(F)c(F)c2)c1=O [Compound I-0391]	7.6	460		
O=c1[nH]cccc1Cn1c(=O)nc(Nc2ccc(OC3CC3)cc2Cl)n(Cc2cc(F)c(F)c(F)c2)c1=O [Compound I-0392]			< 100	1000 to 10000
O=c1[nH]cccc1Cn1c(=O)nc(Nc2cc3cn(CCCOC(F)(F)F)nc3cc2Cl)n(Cc2cc(F)c(F)c(F)c2)c1=O [Compound I-0400]			< 100	1000 to 10000
O=c1nc(Nc2cc3cn(CCN4CCOCC4)nc3cc2Cl)n(Cc2cc(F)c(F)c(F)c2)c(=O)n1-c1cncc2ccccc12 [Compound I-0401]			< 100	1000 to 10000
C[C@H](O)Cn1cc2cc(Nc3nc(=O)n(Cc4cc(Cl)c[nH]c4=O)c(=O)n3Cc3cc(F)c(F)c(F)c3)c(Cl)cc2n1 [Compound I-0402]			< 100	1000 to 10000
COc1ccc(Nc2nc(=O)n(Cc3c[nH]c(=O)[nH]c3=O)c(=O)n2Cc2cc(F)c(F)c(F)c2)c(Cl)c1 [Compound I-0404]			< 100	1000 to 10000
O=c1[nH]cc(Cn2c(=O)nc(Nc3cc4c(cc3Cl)OCC4)n(Cc3cc(F)c(F)c(F)c3)c2=O)c(=O)[nH]1 [Compound I-0406]			< 100	1000 to 10000
N#Cc1cc(Cn2c(Nc3cc4c(cc3Cl)OCC4)nc(=O)n(Cc3cc(Cl)c[nH]c3=O)c2=O)ccc1F [Compound I-0408]			< 100	1000 to 10000
Cn1cnc(Cn2c(=O)nc(Nc3cc4cn(C)nc4cc3Cl)n(Cc3cc(F)c(F)c(F)c3)c2=O)n1 [Compound I-0421]	10	450	< 100	< 1000
Cc1nc2cc(Cl)c(Nc3nc(=O)n(Cc4ncn(C)n4)c(=O)n3Cc3cc(F)c(F)c(F)c3)cc2n1C [Compound I-0422]			< 100	1000 to 10000
O=c1[nH]cccc1Cn1c(=O)nc(Nc2cc3cn(CC4(O)CCC4)nc3cc2Cl)n(Cc2cc(F)c(F)c(F)c2)c1=O [Compound I-0423]			< 100	1000 to 10000
C[C@H](O)Cn1cc2cc(Nc3nc(=O)n(Cc4ccc[nH]c4=O)c(=O)n3Cc3cc(F)c(F)c(F)c3)c(Cl)cc2n1 [Compound I-0424]			< 100	1000 to 10000
C[C@@H](O)Cn1cc2cc(Nc3nc(=O)n(Cc4ccc[nH]c4=O)c(=O)n3Cc3cc(F)c(F)c(F)c3)c(Cl)cc2n1 [Compound I-0425]			< 100	1000 to 10000
Cn1cnc(Cn2c(=O)nc(Nc3cc4cn(C)nc4cc3Cl)n(Cc3cc(F)c(F)c(F)c3)c2=O)c1 [Compound I-0426]	6.3	1030		
N#Cc1cc(Cn2c(Nc3cc4cn(C(F)F)nc4cc3Cl)nc(=O)n(-c3cncc4ccccc34)c2=O)ccc1F [Compound I-0428]			< 100	< 1000
Cn1cc2cc(Nc3nc(=O)n(-c4cncc5ccccc45)c(=O)n3Cc3ccc(F)c(C#N)c3)c(F)cc2n1 [Compound I-0429]			< 100	< 1000
Cc1cncc(-n2c(=O)nc(Nc3cc4cn(C(F)F)nc4cc3Cl)n(Cc3ccc(F)c(C#N)c3)c2=O)c1 [Compound I-0430]			< 100	< 1000
Cc1cc2nn(C)cc2cc1Nc1nc(=O)n(-c2cncc3ccccc23)c(=O)n1Cc1ccc(F)c(C#N)c1 [Compound I-0431]			< 100	< 1000
Cn1cnc(Cn2c(=O)nc(Nc3cc4cn(CCO)nc4cc3Cl)n(Cc3cc(F)c(F)c(F)c3)c2=O)n1 [Compound I-0432]			< 100	1000 to 10000
